# Test results taken from ChEMBL document CHEMBL5257057.
# Calls of active or inactive are those of the source. The calls are words filed in the database; no cut-off is given here.
# What was measured:
# [1] = molecular target: Receptor tyrosine-protein kinase erbB-4 (Homo sapiens) (UniProt Q15303); test: Inhibition of ERBB4 (unknown origin) at 1 uM relative to control
# [2] = molecular target: Tyrosine-protein kinase Lck (Homo sapiens) (UniProt P06239); test: Inhibition of LCK (unknown origin) at 1 uM relative to control
# [3] = molecular target: Tyrosine-protein kinase BTK (Homo sapiens) (UniProt Q06187); test: Inhibition of BTK phosphorylation in human JeKo-1 cells at 0.01 to 10 uM incubated for 2 hrs by Western blot analysis; assay type: cell-based; details: dose 0.01-10 µM
# [4] = molecular target: Tyrosine-protein kinase Blk (Homo sapiens) (UniProt P51451); test: Inhibition of BLK (unknown origin) at 1 uM relative to control
# [5] = molecular target: Tyrosine-protein kinase Tec (Homo sapiens) (UniProt P42680); test: Inhibition of TEC (unknown origin) at 1 uM relative to control
# [6] = molecular target: Protein-tyrosine kinase 6 (Homo sapiens) (UniProt Q13882); test: Inhibition of BRK (unknown origin) at 1 uM relative to control
# [7] = molecular target: T1, Tyrosine-protein kinase TXK (Homo sapiens) (UniProt P42681); test: Inhibition of TXK (unknown origin) at 1 uM relative to control
# T1 sequence (whole entry): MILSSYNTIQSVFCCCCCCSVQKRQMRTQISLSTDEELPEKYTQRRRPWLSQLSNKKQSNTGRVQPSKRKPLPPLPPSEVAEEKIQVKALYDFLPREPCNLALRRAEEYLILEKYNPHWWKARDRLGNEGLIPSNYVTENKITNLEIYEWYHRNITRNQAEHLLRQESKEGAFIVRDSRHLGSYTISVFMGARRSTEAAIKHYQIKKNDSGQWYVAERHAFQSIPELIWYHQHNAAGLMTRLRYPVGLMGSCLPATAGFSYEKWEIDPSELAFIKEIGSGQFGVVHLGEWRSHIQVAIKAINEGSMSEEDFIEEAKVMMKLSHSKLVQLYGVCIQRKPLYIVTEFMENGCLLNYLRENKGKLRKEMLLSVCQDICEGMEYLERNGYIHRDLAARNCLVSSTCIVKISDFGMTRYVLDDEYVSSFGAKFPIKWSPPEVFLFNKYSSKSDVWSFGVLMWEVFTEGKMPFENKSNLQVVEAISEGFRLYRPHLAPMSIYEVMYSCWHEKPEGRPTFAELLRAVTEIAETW
# [8] = molecular target: Tyrosine-protein kinase Fgr (Homo sapiens) (UniProt P09769); test: Inhibition of FGR (unknown origin) at 1 uM relative to control
# [9] = molecular target: Tyrosine-protein kinase BTK (Homo sapiens) (UniProt Q06187); test: Inhibition of BTK (unknown origin) at 1 uM relative to control
# Sequence of Tyrosine-protein kinase BTK (Homo sapiens) (Q06187 whole entry): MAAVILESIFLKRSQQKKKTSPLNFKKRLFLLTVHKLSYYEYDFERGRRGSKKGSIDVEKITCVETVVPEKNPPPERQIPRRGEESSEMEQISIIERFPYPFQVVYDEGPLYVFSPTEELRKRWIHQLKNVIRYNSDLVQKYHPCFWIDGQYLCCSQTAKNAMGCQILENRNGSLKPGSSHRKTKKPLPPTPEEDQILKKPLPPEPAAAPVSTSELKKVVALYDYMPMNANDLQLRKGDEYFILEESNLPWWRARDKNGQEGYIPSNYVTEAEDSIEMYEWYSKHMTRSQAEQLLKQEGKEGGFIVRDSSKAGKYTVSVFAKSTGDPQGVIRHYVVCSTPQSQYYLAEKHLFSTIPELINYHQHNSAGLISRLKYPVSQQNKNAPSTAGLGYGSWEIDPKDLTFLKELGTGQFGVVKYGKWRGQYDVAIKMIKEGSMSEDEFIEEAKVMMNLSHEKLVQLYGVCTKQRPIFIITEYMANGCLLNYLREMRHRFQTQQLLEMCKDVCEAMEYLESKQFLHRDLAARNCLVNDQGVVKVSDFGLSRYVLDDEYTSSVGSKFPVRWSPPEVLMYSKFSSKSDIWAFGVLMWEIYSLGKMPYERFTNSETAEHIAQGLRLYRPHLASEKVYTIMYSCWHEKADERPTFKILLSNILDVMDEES
# Sequence of Receptor tyrosine-protein kinase erbB-4 (Homo sapiens) (Q15303 whole entry): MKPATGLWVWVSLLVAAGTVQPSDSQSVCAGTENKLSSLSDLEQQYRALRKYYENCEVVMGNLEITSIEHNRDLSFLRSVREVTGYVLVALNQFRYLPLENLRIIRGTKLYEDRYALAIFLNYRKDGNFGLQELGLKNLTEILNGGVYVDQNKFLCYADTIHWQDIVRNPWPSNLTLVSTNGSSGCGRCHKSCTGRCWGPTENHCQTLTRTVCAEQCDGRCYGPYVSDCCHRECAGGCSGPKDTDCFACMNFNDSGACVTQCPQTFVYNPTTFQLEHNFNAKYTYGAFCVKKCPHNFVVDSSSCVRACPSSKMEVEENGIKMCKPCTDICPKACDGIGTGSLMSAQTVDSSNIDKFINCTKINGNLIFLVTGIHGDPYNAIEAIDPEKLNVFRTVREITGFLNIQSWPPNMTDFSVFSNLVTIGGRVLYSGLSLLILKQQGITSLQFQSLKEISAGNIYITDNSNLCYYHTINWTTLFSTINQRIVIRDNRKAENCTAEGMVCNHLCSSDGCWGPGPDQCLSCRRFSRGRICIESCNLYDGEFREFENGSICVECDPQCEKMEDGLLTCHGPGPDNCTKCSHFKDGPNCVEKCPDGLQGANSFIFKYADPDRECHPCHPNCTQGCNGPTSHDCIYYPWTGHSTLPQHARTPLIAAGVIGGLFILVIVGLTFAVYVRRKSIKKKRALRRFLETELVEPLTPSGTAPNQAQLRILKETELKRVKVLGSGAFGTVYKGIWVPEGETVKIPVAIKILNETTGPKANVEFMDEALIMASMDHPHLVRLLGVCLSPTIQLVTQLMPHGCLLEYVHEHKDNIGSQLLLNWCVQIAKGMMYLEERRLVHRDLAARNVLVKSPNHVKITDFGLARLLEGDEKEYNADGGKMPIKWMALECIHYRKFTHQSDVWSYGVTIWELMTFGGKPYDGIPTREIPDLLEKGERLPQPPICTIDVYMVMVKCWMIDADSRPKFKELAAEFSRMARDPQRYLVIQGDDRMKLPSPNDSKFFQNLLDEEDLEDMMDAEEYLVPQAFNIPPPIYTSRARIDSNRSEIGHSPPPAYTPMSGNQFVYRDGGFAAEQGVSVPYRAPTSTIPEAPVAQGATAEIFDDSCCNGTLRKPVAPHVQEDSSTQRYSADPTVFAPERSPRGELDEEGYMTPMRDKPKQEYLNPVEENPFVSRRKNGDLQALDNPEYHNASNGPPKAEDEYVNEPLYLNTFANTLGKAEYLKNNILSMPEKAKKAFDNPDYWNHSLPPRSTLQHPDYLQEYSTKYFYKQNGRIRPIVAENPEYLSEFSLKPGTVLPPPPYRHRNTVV
# Sequence of Tyrosine-protein kinase Blk (Homo sapiens) (P51451 2-505 limits assumed): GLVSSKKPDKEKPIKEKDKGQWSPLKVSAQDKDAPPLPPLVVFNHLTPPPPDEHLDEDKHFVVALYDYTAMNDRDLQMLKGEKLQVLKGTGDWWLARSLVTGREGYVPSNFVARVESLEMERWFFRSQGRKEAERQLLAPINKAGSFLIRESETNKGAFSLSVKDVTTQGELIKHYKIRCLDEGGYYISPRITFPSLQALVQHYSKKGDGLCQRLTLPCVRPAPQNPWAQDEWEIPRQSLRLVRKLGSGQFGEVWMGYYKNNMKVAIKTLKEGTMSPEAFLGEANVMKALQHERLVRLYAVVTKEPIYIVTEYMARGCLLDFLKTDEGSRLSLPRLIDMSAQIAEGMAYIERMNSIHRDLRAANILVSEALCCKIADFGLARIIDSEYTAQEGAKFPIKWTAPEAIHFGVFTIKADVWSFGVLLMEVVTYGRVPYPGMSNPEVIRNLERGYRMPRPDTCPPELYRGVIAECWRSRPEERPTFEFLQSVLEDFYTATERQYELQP
# Sequence of Tyrosine-protein kinase Fgr (Homo sapiens) (P09769 2-529 limits assumed): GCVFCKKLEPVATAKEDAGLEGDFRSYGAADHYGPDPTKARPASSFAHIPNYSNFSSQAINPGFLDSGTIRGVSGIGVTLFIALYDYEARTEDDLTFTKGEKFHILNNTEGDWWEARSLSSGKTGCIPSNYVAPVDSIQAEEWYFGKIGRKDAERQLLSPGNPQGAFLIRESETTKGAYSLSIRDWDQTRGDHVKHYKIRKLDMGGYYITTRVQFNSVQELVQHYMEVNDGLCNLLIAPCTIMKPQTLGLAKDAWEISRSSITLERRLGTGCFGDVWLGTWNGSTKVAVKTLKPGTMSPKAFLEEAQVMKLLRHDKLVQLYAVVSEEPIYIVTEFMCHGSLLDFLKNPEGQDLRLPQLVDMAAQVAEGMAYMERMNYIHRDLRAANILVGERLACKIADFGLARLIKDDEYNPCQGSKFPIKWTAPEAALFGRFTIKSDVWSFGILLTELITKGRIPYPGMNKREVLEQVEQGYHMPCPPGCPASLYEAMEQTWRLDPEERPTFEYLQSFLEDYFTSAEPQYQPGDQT
# Sequence of Protein-tyrosine kinase 6 (Homo sapiens) (Q13882 whole entry, looked up): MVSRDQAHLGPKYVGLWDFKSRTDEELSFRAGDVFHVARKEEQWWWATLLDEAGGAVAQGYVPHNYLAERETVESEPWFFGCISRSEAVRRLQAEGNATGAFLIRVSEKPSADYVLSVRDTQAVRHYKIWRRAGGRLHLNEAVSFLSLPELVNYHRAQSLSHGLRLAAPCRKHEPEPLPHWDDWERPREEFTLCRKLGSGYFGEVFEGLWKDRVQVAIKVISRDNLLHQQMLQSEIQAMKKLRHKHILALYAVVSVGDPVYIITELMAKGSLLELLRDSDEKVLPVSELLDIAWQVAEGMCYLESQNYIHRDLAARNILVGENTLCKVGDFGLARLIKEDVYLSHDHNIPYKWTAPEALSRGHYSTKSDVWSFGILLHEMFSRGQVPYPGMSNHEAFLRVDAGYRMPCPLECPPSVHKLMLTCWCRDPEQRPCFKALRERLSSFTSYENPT
# Sequence of Tyrosine-protein kinase Tec (Homo sapiens) (P42680 whole entry, looked up): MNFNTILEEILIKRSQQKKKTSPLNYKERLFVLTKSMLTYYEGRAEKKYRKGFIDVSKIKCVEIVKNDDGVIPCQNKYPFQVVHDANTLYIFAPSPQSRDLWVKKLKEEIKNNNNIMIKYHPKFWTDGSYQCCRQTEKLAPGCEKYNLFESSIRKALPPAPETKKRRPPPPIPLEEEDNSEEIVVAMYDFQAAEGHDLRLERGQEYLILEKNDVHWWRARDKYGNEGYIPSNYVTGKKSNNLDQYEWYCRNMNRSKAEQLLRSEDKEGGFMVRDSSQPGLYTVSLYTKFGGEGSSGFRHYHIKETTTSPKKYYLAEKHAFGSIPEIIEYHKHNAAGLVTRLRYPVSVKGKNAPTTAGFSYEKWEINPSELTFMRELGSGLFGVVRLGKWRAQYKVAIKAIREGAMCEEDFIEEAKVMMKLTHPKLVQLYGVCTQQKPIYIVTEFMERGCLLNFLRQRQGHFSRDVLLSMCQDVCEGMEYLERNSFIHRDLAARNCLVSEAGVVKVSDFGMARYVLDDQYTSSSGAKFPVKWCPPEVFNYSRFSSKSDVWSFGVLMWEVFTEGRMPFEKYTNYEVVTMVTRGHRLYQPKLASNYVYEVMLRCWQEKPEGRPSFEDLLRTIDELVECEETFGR
# Sequence of Tyrosine-protein kinase Lck (Homo sapiens) (P06239 2-509 limits assumed): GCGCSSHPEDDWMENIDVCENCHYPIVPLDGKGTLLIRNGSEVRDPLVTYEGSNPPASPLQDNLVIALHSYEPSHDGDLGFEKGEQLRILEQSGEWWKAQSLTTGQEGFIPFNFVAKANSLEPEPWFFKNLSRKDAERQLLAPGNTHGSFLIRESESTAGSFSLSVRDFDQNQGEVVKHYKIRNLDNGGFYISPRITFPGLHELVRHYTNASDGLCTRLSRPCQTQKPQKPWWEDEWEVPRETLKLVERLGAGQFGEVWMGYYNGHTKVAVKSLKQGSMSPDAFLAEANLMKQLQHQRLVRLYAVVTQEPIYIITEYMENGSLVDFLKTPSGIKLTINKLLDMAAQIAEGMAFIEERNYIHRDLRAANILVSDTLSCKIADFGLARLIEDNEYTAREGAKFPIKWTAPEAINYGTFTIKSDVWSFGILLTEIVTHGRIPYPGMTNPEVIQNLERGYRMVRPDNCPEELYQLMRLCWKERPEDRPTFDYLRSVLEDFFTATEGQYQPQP
SMILES,inhibition [1] [%],inhibition [2] [%],inhibition [3],inhibition [4] [%],inhibition [5] [%],inhibition [6] [%],inhibition [7] [%],inhibition [8] [%],inhibition [9] [%]
C=CC(=O)N1CCC[C@H](n2nc(-c3c(C)cc(Oc4ccccc4)cc3C)c3c(N)ncnc32)C1,10,50,Active,10,10,50,10,50,10
C=CC(=O)N1CCC[C@H](n2nc(-c3ccc(Oc4ccccc4)cc3C)c3c(N)ncnc32)C1,,,Active,,,,,,
